In USRE39148E1, “Potentiation of the Microbicide 2-(Thiocyanomethylthio)benzothiazole using an n-alkyl heterocyclic compound” (Buckman Laboratories International, Inc., priority 1995, dated 2006):

What was measured:
[1] = system: Sphaerotilus natans, ATCC 15291; assay: 18 Hour Stokes Broth Test; format: cell-based; conditions: alone
Protocol: The bactericidal effects of the combined use of TCMTB and N-alkyl heterocyclic compounds against bacteria were measured using an 18 Hour Stokes Broth Test. Combinations of TCMTB and N-dodecyl morpho line (DDM) and of TCMTB and N-dodecyl imidazole (DDI) were tested against the bacteria Sphaerotilus natans, ATCC 15291. In this test, compound A was Busan® 1030 product, a 30% TCMTB formulation, and compound B was either DDM (99%) or DDI (99%). The Busan® […] product is available from Buckman Laboratories, Memphis, Tenn. The Stokes broth substrate used to evaluate effectiveness of microbicidal compositions against Sphaerotilus natans was prepared by adding the following to one liter of water: [table] The broth was adjusted to pH 7.0 with sodium hydroxide. Forty gram portions were then added to 180 mL Pyrex milk dilution bottles fitted with […] rubber stoppers and then sterilized. Each of the following substances was then added to each bottle in the order listed. • 1. Sterile distilled water as required in each individual case to bring the total weight of the contents of each bottle to 50 g after all subsequent additions specified below (including inoculation with the aqueous suspension of test organism) have been made. • 2. Solution of toxicant or control agent to be evaluated in such individual volumes as to give the concentration desired in parts per million by weight. • 3. One mL of a 24-hour old S. natans culture grown in Stokes broth. After the inoculant suspension of the test organism was added to the bottles they were incubated at 28° C. for 18 hours. After this incubation, a 1 mL of sample was withdrawn from each bottle, diluted, plated on Stokes agar, and incubated for 72-96 hr. at 28-30° C. Stokes agar was prepared like the broth with 12.5 g agar added per liter. The number of colonies on each plate was determined and converted to the count per milliliter of substrate. […] A percentage kill of 90 percent or higher represents an extremely useful bactericidal composition. […] Others may be calculated from the data presented.

[2] = system: Desulfovibrio desulfuricans, ATCC 7757; assay: 28 Day API Test; format: cell-based; parameters: key: 0=no growth; 4=heavy growth; conditions: alone
Protocol: The bactericidal effects of the combined use of TCMTB and N-alkyl heterocyclic compounds against bacteria were measured using an 28 Day API Test. Combinations of TCMTB (compound A) and N-dodecyl morpholine (DDM, compound B) and of TCMTB (compound A) and N-dodecyl imidazole (DDI, compound B) were tested against the bateria Desulfovibrio desulfuricans, ATCC 7757. Busan® 1030 product, a 30% TCMTB formulation, DDM (99%), and DDI (99%) were used in this testing. The Busan® […] product is available from Buckman Laboratories, Memphis Tenn. The medium used was a modified API Broth having the following composition: […] The compounds were dissolved in 1.0 L of deionized water to form the medium. The pH of the medium was adjusted to a final pH of 6.9 with 1 N sodium hydroxide prior to sterilization. The medium was sterilized at 121° C. for 20 minutes and then allowed to cool to room temperature. The medium is then inoculated by adding 10 ml per liter of a 24-hr. broth culture of Desulfovibrio desulfuricans. From stock solutions of the chemicals to be tested, sufficient amounts of the compounds were added to 1 oz. glass bottles so that when a bottle was completely filled, the desired concentration of the chemical was present. The bottles were then completely filled with the inoculated API broth (10 mL innoculum per liter medium) in a manner such as to exclude all air and provide an anaerobic state. The bottles were capped tightly and inverted gently to mix the contents and, at the same time, to make sure no air bubbles were present. Incubation was carried out at 37° C. for 28 days. Growth was indicated by blackening of the culture medium, whereas those bottles having sufficient chemical to inhibit growth would remain clear. Observations of growth were made at the end of 7 days, 14 days, 21 days and 28 days. […] The minimum inhibitory concentration (MIC) was defined as the lowest concentration tested which gave no growth in the bottle (clear liquid). […] Others may be calculated from the data presented.

CCCCCCCCCCCCn1ccnc1 [Dodecyl Imidazole, N-dodecyl imidazole]
6.80 × 10^5 CFU/mL: CFU/mL ([1]; Table 3, 2 ppm)
75.1%: % Kill ([1]; Table 3, 1 ppm)
1.26 × 10^6 CFU/mL: CFU/mL ([1]; Table 3, 1 ppm)
<10^3 CFU/mL: CFU/mL ([1]; Table 3, 5 ppm) | CFU/mL ([1]; Table 3, 10 ppm) | CFU/mL ([1]; Table 3, 20 ppm) | CFU/mL ([1]; Table 3, 50 ppm) | CFU/mL ([1]; Table 3, 100 ppm)
86.5%: % Kill ([1]; Table 3, 2 ppm)

CCCCCCCCCCCCN1CCOCC1 [Dodecyl Morpholine, N-dodecyl morpholine]
3: growth, Day 14 ([2]; Table 4, 40 ppm) | growth, Day 21 ([2]; Table 4, 80 ppm) | growth, Day 28 ([2]; Table 4, 160 ppm)
<10^3 CFU/mL: CFU/mL ([1]; Table 2, 10 ppm) | CFU/mL ([1]; Table 2, 20 ppm)
2: growth, Day 7 ([2]; Table 4, 40 ppm) | growth, Day 21 ([2]; Table 4, 160 ppm) | growth, Day 7 ([2]; Table 5, 8 ppm)
77.6%: % Kill ([1]; Table 2, 5 ppm)
1.58 × 10^6 CFU/mL: CFU/mL ([1]; Table 2, 1 ppm)
4: growth, Day 7 ([2]; Table 4, 10 ppm) | growth, Day 14 ([2]; Table 4, 10 ppm) | growth, Day 21 ([2]; Table 4, 10 ppm) | growth, Day 28 ([2]; Table 4, 10 ppm) | growth, Day 7 ([2]; Table 4, 20 ppm) | growth, Day 14 ([2]; Table 4, 20 ppm) | growth, Day 21 ([2]; Table 4, 20 ppm) | growth, Day 28 ([2]; Table 4, 20 ppm) | growth, Day 21 ([2]; Table 4, 40 ppm) | growth, Day 28 ([2]; Table 4, 40 ppm) | growth, Day 28 ([2]; Table 4, 80 ppm) | growth, Day 7 ([2]; Table 5, 1 ppm) | growth, Day 14 ([2]; Table 5, 1 ppm) | growth, Day 21 ([2]; Table 5, 1 ppm) | growth, Day 28 ([2]; Table 5, 1 ppm) | growth, Day 7 ([2]; Table 5, 2 ppm) | growth, Day 14 ([2]; Table 5, 2 ppm) | growth, Day 21 ([2]; Table 5, 2 ppm) | growth, Day 28 ([2]; Table 5, 2 ppm) | growth, Day 7 ([2]; Table 5, 4 ppm) | growth, Day 14 ([2]; Table 5, 4 ppm) | growth, Day 21 ([2]; Table 5, 4 ppm) | growth, Day 28 ([2]; Table 5, 4 ppm) | growth, Day 14 ([2]; Table 5, 8 ppm) | growth, Day 28 ([2]; Table 5, 8 ppm)
67.4%: % Kill ([1]; Table 2, 2 ppm)
1.24 × 10^6 CFU/mL: CFU/mL ([1]; Table 2, 2 ppm)
58.4%: % Kill ([1]; Table 2, 1 ppm)
8.51 × 10^5 CFU/mL: CFU/mL ([1]; Table 2, 5 ppm)
0: growth, Day 7 ([2]; Table 4, 80 ppm) | growth, Day 7 ([2]; Table 4, 160 ppm) | growth, Day 14 ([2]; Table 4, 160 ppm) | growth, Day 7 ([2]; Table 4, 320 ppm) | growth, Day 14 ([2]; Table 4, 320 ppm) | growth, Day 21 ([2]; Table 4, 320 ppm) | growth, Day 28 ([2]; Table 4, 320 ppm) | growth, Day 7 ([2]; Table 5, 16 ppm) | growth, Day 14 ([2]; Table 5, 16 ppm) | growth, Day 21 ([2]; Table 5, 16 ppm) | growth, Day 28 ([2]; Table 5, 16 ppm) | growth, Day 7 ([2]; Table 5, 32 ppm) | growth, Day 14 ([2]; Table 5, 32 ppm) | growth, Day 28 ([2]; Table 5, 32 ppm)
1: growth, Day 14 ([2]; Table 4, 80 ppm)
